Data taken from ChEMBL document CHEMBL5634085, “Design, synthesis and antitrypanosomatid activity of 2-nitroimidazole-3,5-disubstituted isoxazole compounds based on benznidazole” (Eur J Med Chem, 2023).
Calls of active or inactive are those of the source. No cut-off for these calls is given here.

Legend:
[1] = test system: Trypanosoma cruzi; assay: Binding affinity to Trypanosoma cruzi type I nitro reductase at 10 uM incubated for 5 mins in the presence of NADH by microplate reader analysis
[2] = test system: Trypanosoma cruzi; assay: Binding affinity to Trypanosoma cruzi type I nitro reductase at 25 uM incubated for 5 mins in the presence of NADH by microplate reader analysis
[3] = Cytotoxicity against monkey LLC-MK2 cells incubated for 72 hrs by MTT assay; type: toxicity, cell-based, Macaca mulatta; details: rhesus monkey
[4] = Selectivity index, ratio of CC50 for cytotoxicity against monkey LLC-MK2 cells to IC50 for antileishmanial activity against Leishmania amazonensis IFLA/BR/1967/PH8 amastigotes infected in mouse peritoneal macrophage; type: toxicity, cell-based; details: read-out: Ratio CC50/IC50
[5] = test system: Leishmania amazonensis; assay: (§1) Antileishmanial activity against Leishmania amazonensis IFLA/BR/1967/PH8 amastigotes infected in mouse peritoneal macrophage assessed as inhibition of parasite growth pre-infected in cells for 4 hrs followed by compound addition and measured after 24 hrs by Giemsa staining based analysis; type: functional, organism-based; details: IFLA/BR/1967/PH8, Peritoneal macrophage
[6] = test system: Trypanosoma cruzi; assay: (§2) Antitrypanosomal activity against Trypanosoma cruzi Tulahuen lacZ expressing beta-galactosidase amastigotes infected in monkey LLC-MK2 cells assessed as inhibition of amastigotes pre-infected in cells for 48 hrs followed by compound addition and measured after 72 hrs by CPRG reagent based absorbance analysis; type: functional, organism-based
[7] = Selectivity index, ratio of CC50 for monkey LLC-MK2 cells to IC50 for Trypanosoma cruzi Tulahuen lacZ expressing beta-galactosidase amastigotes infected monkey LLC-MK2 cells; type: toxicity; details: read-out: Ratio CC50/IC50
[8] = test system: Leishmania amazonensis; assay: as §1, with “Potency index, ratio of pentamidine IC50 to test compound IC50 for antileishmanial” for “Antileishmanial”; type: functional, Peritoneal macrophage cell
[9] = test system: Trypanosoma cruzi; assay: as §2, with “Potency index, ratio of benznidazole IC50 to test compound IC50 for antitrypanosomal” for “Antitrypanosomal”; type: functional
[10] = test system: Trypanosoma cruzi; assay: Antitrypanosomal activity against Trypanosoma cruzi Y trypomastigotes infected in BALB/c mouse model assessed as reduction of parasitemia level at 25 mg/kg/day, po administered via gavage for consecutive 10 days and measured on day 5,7,9 and 11; type: functional, organism-based; details: time 11.0 day
[11] = Toxicity in BALB/c mouse infected with Trypanosoma cruzi Y trypomastigotes assessed as animal survival at 25 mg/kg/day, po administrated via gavage for consecutive 10 days; type: organism-based; details: in vivo, 240 h, time 10 day
[12] = test system: Trypanosoma cruzi; assay: Antitrypanosomal activity against Trypanosoma cruzi Y strain trypomastigotes infection induced hepatosplenomegaly BALB/c male mouse model assessed as change in infection-mediated liver weight at 25 mg/kg/day, po administrated for consecutive 10 days; type: functional, organism-based; details: time 10.0 day
[13] = test system: Trypanosoma cruzi; assay: Antitrypanosomal activity against Trypanosoma cruzi Y strain trypomastigotes infection induced hepatosplenomegaly BALB/c male mouse model assessed as change in infection-mediated spleen weight at 25 mg/kg/day, po administrated for consecutive 10 days; type: functional, organism-based; details: time 10.0 day
[14] = test system: Trypanosoma cruzi; assay: Effect on infection-mediated heart weight in Trypanosoma cruzi Y strain trypomastigotes infected in BALB/c mouse model at 25 mg/kg/day, po administered for consecutive 10 days; type: functional, organism-based; details: time 10.0 day
[15] = Toxicity in BALB/c mouse infected with Trypanosoma cruzi Y trypomastigotes assessed as body weight loss at 25 mg/kg/day, po administrated via gavage for consecutive 10 days; type: organism-based; details: in vivo, 240 h, time 10 day
[16] = Toxicity in BALB/c mouse infected with Trypanosoma cruzi Y trypomastigotes assessed as body weight gain at 25 mg/kg/day, po administrated via gavage for consecutive 10 days; type: organism-based; details: in vivo, 240 h, time 10 day
[17] = test system: Trypanosoma cruzi; assay: (§3) Antitrypanosomal activity against Trypanosoma cruzi Y trypomastigotes infected in BALB/c mouse model assessed as reduction of parasite load in cardiac tissue by measuring reduction in DNA copy number at 25 mg/kg/day, po administered via gavage observed on 11 day of post infection by qPCR analysis relative to control; type: functional; set-up: scale not given: the % may be the effect or the level left
[18] = test system: Trypanosoma cruzi; assay: Antitrypanosomal activity against Trypanosoma cruzi Y trypomastigotes infected in BALB/c mouse model assessed as reduction of parasitemia level at 25 mg/kg/day, po administered via gavage observed on 7 day of post infection relative to control; type: functional; set-up: scale not given: the % may be the effect or the level left
[19] = test system: Trypanosoma cruzi; assay: Antitrypanosomal activity against Trypanosoma cruzi Y trypomastigotes infected in BALB/c mouse model assessed as reduction of parasitemia level at 25 mg/kg/day, po administered via gavage administrated for consecutive 10 days and measured on day 11; type: functional, organism-based; details: time 11.0 day
[20] = Toxicity in BALB/c mouse infected with Trypanosoma cruzi Y trypomastigotes assessed as animal survival at 25 mg/kg/day, po administrated via gavage for consecutive 10 days relative to control; type: organism-based; details: in vivo, time 10 day
[21] = Toxicity in BALB/c mouse infected with Trypanosoma cruzi Y trypomastigotes assessed as body weight gain at 100 mg/kg/day, po administrated via gavage for consecutive 10 days; type: organism-based; details: in vivo, 240 h, time 10 day
[22] = test system: Trypanosoma cruzi; assay: Effect on infection-mediated heart weight in Trypanosoma cruzi Y strain trypomastigotes infected in BALB/c mouse model at 100 mg/kg/day, po administered for consecutive 10 days; type: functional, organism-based; details: time 10.0 day
[23] = test system: Trypanosoma cruzi; assay: as §3, with “25 to 100” for “25”; type: functional; set-up: scale not given: the % may be the effect or the level left; details: dose 25-100 mg/kg/day
[24] = Toxicity in BALB/c mouse infected with Trypanosoma cruzi Y trypomastigotes assessed as animal survival at 100 mg/kg/day, po administrated via gavage for consecutive 10 days relative to control; type: organism-based; details: in vivo, time 10 day

Row | Structure (SMILES) | Kobs [1] | Kobs [2] | CC50 at 72 h [3] | selectivity ratio [4] | IC50 [5] | IC50 [6] | selectivity ratio [7] | Ratio IC50 [8] | also measured
1 | COc1ccc(-c2cc(Cn3ccnc3[N+](=O)[O-])on2)cc1[N+](=O)[O-] | 0.54 s⁻¹ | 0.57 s⁻¹ | > 50 µM | > 3.3 | 15.2 µM | 24.2 µM | > 2.1 | – | –
2 | Cc1ccc(-c2cc(Cn3ccnc3[N+](=O)[O-])on2)cc1[N+](=O)[O-] | – | – | > 50 µM | > 15.3 | 3.3 µM | 33.6 µM | > 1.5 | 5.1 | –
3 | COc1ccc(-c2cc(Cn3ccnc3[N+](=O)[O-])on2)cc1OC | 0.57 s⁻¹ | 0.82 s⁻¹ | > 50 µM | > 2.5 | 19.6 µM | 0.2 µM | > 200 | – | Ratio IC50 [9]: 15; Activity [10]: inactive; Activity [11]: Toxic; Activity [12]: Active; Activity [13]: Active; Activity [14]: inactive; Activity [15]: Toxic
4 | CN(C)c1ccc(-c2cc(Cn3ccnc3[N+](=O)[O-])on2)cc1 | 0.24 s⁻¹ | 0.31 s⁻¹ | > 50 µM | > 1.5 | 33.4 µM | 2.3 µM | > 21.2 | – | –
5 | O=[N+]([O-])c1ccc(-c2cc(Cn3ccnc3[N+](=O)[O-])on2)o1 | 0.75 s⁻¹ | 1.27 s⁻¹ | > 50 µM | – | – | 0.9 µM | > 51 | – | Ratio IC50 [9]: 5.4
6 | CCN1CCN(c2ccc(-c3cc(Cn4ccnc4[N+](=O)[O-])on3)cc2)CC1 | 0.23 s⁻¹ | 0.48 s⁻¹ | > 50 µM | > 9 | 5.5 µM | 1.6 µM | > 30.8 | – | Activity [16]: Non-Toxic; Activity [17]: 73%; Activity [12]: Active; Activity [13]: Active; Activity [18]: 77%; Activity [14]: inactive; Activity [19]: inactive; survival at 240 h [20]: 100%
7 | O=[N+]([O-])c1nccn1Cc1cc(-c2ccc3c(c2)OCO3)no1 | – | – | > 50 µM | > 6 | 8.3 µM | 3.6 µM | > 13.8 | 2 | –
8 | CN1CCN(c2ccc(-c3cc(Cn4ccnc4[N+](=O)[O-])on3)cc2)CC1 | 0.21 s⁻¹ | 0.38 s⁻¹ | > 50 µM | > 3.2 | 15.6 µM | 0.4 µM | > 125 | – | Ratio IC50 [9]: 10; Activity [16]: Non-Toxic; Activity [10]: inactive; Activity [12]: Active; Activity [13]: Active; Activity [14]: inactive; survival at 240 h [20]: 100%
9 | CN1CCCN(c2ccc(-c3cc(Cn4ccnc4[N+](=O)[O-])on3)cc2)CC1 | – | – | > 50 µM | > 21.3 | 2.3 µM | 1.6 µM | > 32 | 7.1 | –
10 | O=[N+]([O-])c1nccn1Cc1cc(-c2ccc(N3CCN(CCO)CC3)cc2)no1 | – | – | > 50 µM | > 8.8 | 5.6 µM | 7.5 µM | > 6.7 | 2.9 | –
11 | O=C(Cn1ccnc1[N+](=O)[O-])NCc1ccccc1 [BENZNIDAZOLE] | 0.13 s⁻¹ | 0.3 s⁻¹ | > 50 µM | – | – | 3.8 µM | > 9.3 | – | Activity [21]: Non-Toxic; Activity [22]: inactive; Activity [23]: 99%; Activity [16]: Non-Toxic; survival at 240 h [24]: 100%; Activity [10]: inactive; Activity [12]: Active; Activity [13]: Active; Activity [14]: inactive; survival at 240 h [20]: 100%
12 | O=[N+]([O-])c1nccn1Cc1cc(-c2ccc(N3CCNCC3)cc2)no1 | – | – | > 50 µM | > 19.8 | 2.5 µM | 4.7 µM | > 10.5 | 6.6 | –
13 | Cc1ccc(-c2cc(Cn3ccnc3[N+](=O)[O-])on2)cc1 | – | – | > 50 µM | > 1.9 | 26.7 µM | 9.3 µM | > 5.4 | – | –
14 | O=[N+]([O-])c1nccn1Cc1cc(-c2ccc(O)cc2)no1 | 0.47 s⁻¹ | 0.68 s⁻¹ | > 50 µM | > 2.7 | 18.7 µM | 0.6 µM | > 87.7 | – | Ratio IC50 [9]: 12; Activity [16]: Non-Toxic; Activity [10]: inactive; Activity [12]: Active; Activity [13]: Active; Activity [14]: inactive; survival at 240 h [20]: 100%
15 | CC(C)N1CCN(c2ccc(-c3cc(Cn4ccnc4[N+](=O)[O-])on3)cc2)CC1 | – | – | > 50 µM | > 10.6 | 4.7 µM | 6.6 µM | > 7.6 | 3.5 | –
16 | O=[N+]([O-])c1nccn1Cc1cc(-c2ccc(Cl)cc2)no1 | – | – | 48 µM | 1.8 | 26.6 µM | 1.5 µM | 32.5 | – | –
17 | COc1cc(OC)c(Cl)c(-c2cc(Cn3ccnc3[N+](=O)[O-])on2)c1 | – | – | > 50 µM | > 22.6 | 2.2 µM | 12 µM | > 4.2 | 7.6 | –
